From paper PMC6979384, “Characterization of the plant homeodomain (PHD) reader family for their histone tail interactions” (Epigenetics & Chromatin, 2020)
Entries after “also recorded” stand apart in the source; their conditions may differ.

How the values were obtained:
BAZ2B = experiment: Histone peptide microarray; type: binding, human; conditions: GST-tagged BAZ2B, sheet Array Heatmap, each array performed twice, total n = 4
Summary of the method: (§1)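 Steps: express and purify GST-tagged PHD reader; incubate 0.5 μM protein on a peptide microarray (293 histone peptides, single or combined PTMs) following an optimized protocol; average signal across 4 replicates.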

CHD5 (PCC) = experiment: Histone peptide microarray; type: binding, human; conditions: GST-tagged CHD5 (PCC = PHD + Dual Chromodomain), sheet Array Heatmap, each array performed twice, total n = 4
Summary of the method: as §1

ING2 = experiment: Histone peptide microarray; type: binding, human; conditions: GST-tagged ING2, sheet Array Heatmap, each array performed twice, total n = 4
Summary of the method: as §1

ING5 = experiment: Histone peptide microarray; type: binding, human; conditions: GST-tagged ING5, sheet Array Heatmap, each array performed twice, total n = 4
Summary of the method: as §1

KDM5B (1) = experiment: Histone peptide microarray; type: binding, human; conditions: GST-tagged KDM5B (1), sheet Array Heatmap, each array performed twice, total n = 4
Summary of the method: as §1

[1] = system: 123 annotated human PHD-containing domains; experiment: PHD finger domain microarray probed with biotinylated peptides (all domains); type: binding; conditions: for binding on domain microarray: GST-PHD readers in duplicate on nitrocellulose slides, biotinylated peptide pre-labeled with streptavidin-Cy3; for number of H3-interacting domains with preference for this state: out of 31 H3-binding domains
Excerpt: To define the histone binding preferences of the PHD finger proteome, we expressed and purified 123 annotated human PHD-containing domains as GST-tagged recombinant fusions from E. coli. The recombinant proteins consisted of either PHD fingers in isolation, or as tandem domains if a given PHD finger was located adjacent to another reader domain (e.g., one or more PHD fingers, Tudor, chromo and/or bromodomains) (Additional file 1: Table S1). These GST fusions were printed in duplicate on nitrocellulose-coated microarray slides and probed with biotinylated peptides that represented the N-termini of H3, H4, H2A or H2B (Fig. 1a and Additional file 2: Figure S1). As the majority of PHD readers thus far characterized are H3K4me0/3 readers, we included additional peptides (H3K4 as either mono-, di-, or trimethylated) to further determine any H3K4 methyl preference (Additional file 2: Figure S2 and Fig. 1b). As a control, we also probed these microarrays with an α-Tubulin peptide (a.a. 30–50) that would not be predicted to interact with PHD fingers (Additional file 2: Figure S1). […] We also cannot exclude the possibility that some PHD fingers might not be functionally active on the microarrays (perhaps due to misfolding or the lack of an important adjacent region).
The protein domain microarray was designed to include 123 GST-tagged PHD-domain containing recombinant proteins. Protein domain microarray development and probing was as previously. Briefly, recombinant proteins were synthesized and cloned into pGEX-4T-1 vector by Biomatik Corporation. These GST-PHD readers were subsequently expressed, purified, and spotted in duplicate onto nitrocellulose-coated glass slides (Oncyte Avid slides, Grace Bio-Labs) using a pin arrayer (Aushon 2470, Aushon). For probing, microarray slides were blocked with 3% milk, 3% bovine serum albumin, 0.1% Tween 20 in PBS. Biotinylated peptides were pre-labeled with streptavidin-Cy3 fluorophore (GE Healthcare) and incubated with the blocked array slides. Slides were then washed with PBST and allowed to air dry. Fluorescent interactions were visualized using a GenePix 4200A Microarray Scanner (Molecular Devices).

CHD5 (PPCC) = experiment: dCypher AlphaScreen Phase B (full peptide screen); type: binding, human; conditions: reader 5.2 nM, 100 nM peptide, 23 °C, n = 2
Method: (§2) X-axes are log(protein concentration (M)) at constant peptide concentration (100 nM); Y-axes are AlphaScreen counts, representing relative strength of binding (n = 2; error bars are S.D.). i Heat map represents relative binding to H3 N-terminal peptides (left) by PHD-containing GST-tagged proteins (top) using the dCypher AlphaScreen platform. Protein concentrations can be found in Additional file 5: Table S4. Binding strength is indicated by color gradient from green to yellow (stronger to weaker). […] Alpha counts (n = 2) were normalized individually for each protein to the highest signal for each respective assay. For full dCypher peptide screen data, see Additional file 4: Table S3
(§3) Once the optimal protein concentration ranges for each of the eight readers were determined, we conducted the full dCypher peptide screen (293 histone peptides) (Fig. 3i; Additional file 4: Table S3).
(§4) The dCypher peptide screen assay was performed as previously described. Briefly, 5 μL of GST-tagged reader domains (optimal protein concentration for library screening determined by initial binding curves to candidate peptides) were incubated with 5 μL of 400 nM (100 nM Final) biotinylated histone peptides (EpiCypher) for 30 min at 23 °C in 1× AlphaLISA Epigenetics buffer + epigenetics buffer supplement (PerkinElmer, AL1008) in a 384-well plate. A 10 μL mix of 5 µg/mL (2.5 μg/mL final) glutathione Acceptor beads (PerkinElmer, AL109M) and 10 μg/mL (5 μg/mL final) streptavidin Donor beads (PerkinElmer, 6760002) was prepared in 1× [Epigenetics buffer + supplement] and added to each well. Plates were incubated at 23 °C in subdued lighting for 60 min and AlphaLISA signal measured on a PerkinElmer 2104 EnVision (680 nm laser excitation, 570 nm emission filter ± 50 nm bandwidth).
(§5) Supplementary file 13072_2020_328_MOESM4_ESM.xlsx: Additional file 4: Table S3. dCypher Results. Excel Tab Peptide Phase A is a compiled set of binding data: chromatin reader titration vs. several peptide targets. Data is presented as raw Alpha counts in duplicates at each concentration tested. Excel Tab Peptide Phase B is a compiled set of binding data: chromatin reader at optimized concentrations vs. entire 293 peptide library. Data is presented as the average and standard deviation of duplicates. […] Key: red = strong binding; blue = weak/no binding.

TRIM66 (PB) = experiment: dCypher AlphaScreen Phase B (full peptide screen); type: binding, human; conditions: reader 7 nM, 100 nM peptide, 23 °C
Method: as §2, §3, §4, §5

| binding on domain microarray [1] | binding (CHD5 (PPCC)) | Substance | Array Heatmap signal (histone peptide microarray) (BAZ2B) | Array Heatmap signal (histone peptide microarray) (CHD5 (PCC)) | Array Heatmap signal (histone peptide microarray) (ING2) | Array Heatmap signal (histone peptide microarray) (ING5) | Array Heatmap signal (histone peptide microarray) (KDM5B (1)) | other results |
| --- | --- | --- | --- | --- | --- | --- | --- | --- |
| largely recognized equivalently | – | H3K4me2: H3 1-20 [Peptide H3K4me2] | 0.5231 | 0.8359 | 0.6539 | 0.3985 | 0.6566 | – |
| largely recognized equivalently | – | H3K4me3: H3 1-20 [Peptide H3K4me3] | 0.4249 | 0.6826 | 0.6884 | 0.3493 | 0.5666 | number of H3-interacting domains with preference for this state [1]: 18 |

The remaining lines, values behind:

| Substance | binding on domain microarray [1] | binding (CHD5 (PPCC)) | Array Heatmap signal (histone peptide microarray) (BAZ2B) | Array Heatmap signal (histone peptide microarray) (CHD5 (PCC)) | Array Heatmap signal (histone peptide microarray) (ING2) | Array Heatmap signal (histone peptide microarray) (ING5) | Array Heatmap signal (histone peptide microarray) (KDM5B (1)) | other results |
| --- | --- | --- | --- | --- | --- | --- | --- | --- |
| H3K9ac: H3 1-20 [Peptide H3K9ac] | – | – | – | – | – | – | – | Array Heatmap signal (histone peptide microarray) (BAZ2B; listed as 2): 0.4731; Array Heatmap signal (histone peptide microarray) (BAZ2B; listed as 3): 0.4634; Array Heatmap signal (histone peptide microarray) (CHD5 (PCC); listed as 2): 0.8342; Array Heatmap signal (histone peptide microarray) (CHD5 (PCC); listed as 3): 0.7526; Array Heatmap signal (histone peptide microarray) (ING2; listed as 2): 0.6059; Array Heatmap signal (histone peptide microarray) (ING2; listed as 3): 0.6036; Array Heatmap signal (histone peptide microarray) (ING5; listed as 2): 0.3289; Array Heatmap signal (histone peptide microarray) (ING5; listed as 3): 0.3311; Array Heatmap signal (histone peptide microarray) (KDM5B (1); listed as 2): 0.6899; Array Heatmap signal (histone peptide microarray) (KDM5B (1); listed as 3): 0.6761 |
| H3K4me1: H3 1-20 [Peptide H3K4me1] | did not detect H3K4me1 to the same degree | preference for H3K4me0/1 | 0.4995 | 0.8603 | 0.606 | 0.3865 | 0.6949 | binding (TRIM66 (PB); n = 2): preference for H3K4me0 and me1 |
| H3 (1-20): unmodified H3 N-terminal peptide (1–20) | – | preference for H3K4me0/1 | 0.438 | 0.7444 | 0.5908 | 0.3305 | 0.6198 | number of PHD-containing fusions with positive binding ([1]; of 123 PHD-containing fusions): 31; number of H3-interacting domains with preference for this state [1]: 10; binding (TRIM66 (PB); n = 2, listed as H3K4me0): preference for H3K4me0 and me1; also recorded: robust readers of H3K4me0 peptides |
| H3S10p: H3 1-20 [Peptide H3S10p] | – | – | 0.5109 | 0.8638 | 0.606 | 0.3966 | 0.6981 | – |
| H3K9me3: H3 1-20 [Peptide H3K9me3] | – | ability to bind to the peptides containing H3K9me3 | 0.4699 | 0.824 | 0.5901 | 0.3535 | 0.6712 | binding (TRIM66 (PB); n = 2): ability to bind to the peptides containing H3K9me3 |
